From patent US9212182B2, “Bicyclic sulfonamide compounds as sodium channel inhibitors” (AMGEN INC., priority 2013, dated 2015)

Each molecule was assayed against Nav 1.7 (Homo sapiens (Human), UniProt Q15858) (assay: in-vitro Nav 1.7 PX (IC50)). Conditions: not given.
Type: cell-based

Nav 1.7, sequence (Q15858 whole entry): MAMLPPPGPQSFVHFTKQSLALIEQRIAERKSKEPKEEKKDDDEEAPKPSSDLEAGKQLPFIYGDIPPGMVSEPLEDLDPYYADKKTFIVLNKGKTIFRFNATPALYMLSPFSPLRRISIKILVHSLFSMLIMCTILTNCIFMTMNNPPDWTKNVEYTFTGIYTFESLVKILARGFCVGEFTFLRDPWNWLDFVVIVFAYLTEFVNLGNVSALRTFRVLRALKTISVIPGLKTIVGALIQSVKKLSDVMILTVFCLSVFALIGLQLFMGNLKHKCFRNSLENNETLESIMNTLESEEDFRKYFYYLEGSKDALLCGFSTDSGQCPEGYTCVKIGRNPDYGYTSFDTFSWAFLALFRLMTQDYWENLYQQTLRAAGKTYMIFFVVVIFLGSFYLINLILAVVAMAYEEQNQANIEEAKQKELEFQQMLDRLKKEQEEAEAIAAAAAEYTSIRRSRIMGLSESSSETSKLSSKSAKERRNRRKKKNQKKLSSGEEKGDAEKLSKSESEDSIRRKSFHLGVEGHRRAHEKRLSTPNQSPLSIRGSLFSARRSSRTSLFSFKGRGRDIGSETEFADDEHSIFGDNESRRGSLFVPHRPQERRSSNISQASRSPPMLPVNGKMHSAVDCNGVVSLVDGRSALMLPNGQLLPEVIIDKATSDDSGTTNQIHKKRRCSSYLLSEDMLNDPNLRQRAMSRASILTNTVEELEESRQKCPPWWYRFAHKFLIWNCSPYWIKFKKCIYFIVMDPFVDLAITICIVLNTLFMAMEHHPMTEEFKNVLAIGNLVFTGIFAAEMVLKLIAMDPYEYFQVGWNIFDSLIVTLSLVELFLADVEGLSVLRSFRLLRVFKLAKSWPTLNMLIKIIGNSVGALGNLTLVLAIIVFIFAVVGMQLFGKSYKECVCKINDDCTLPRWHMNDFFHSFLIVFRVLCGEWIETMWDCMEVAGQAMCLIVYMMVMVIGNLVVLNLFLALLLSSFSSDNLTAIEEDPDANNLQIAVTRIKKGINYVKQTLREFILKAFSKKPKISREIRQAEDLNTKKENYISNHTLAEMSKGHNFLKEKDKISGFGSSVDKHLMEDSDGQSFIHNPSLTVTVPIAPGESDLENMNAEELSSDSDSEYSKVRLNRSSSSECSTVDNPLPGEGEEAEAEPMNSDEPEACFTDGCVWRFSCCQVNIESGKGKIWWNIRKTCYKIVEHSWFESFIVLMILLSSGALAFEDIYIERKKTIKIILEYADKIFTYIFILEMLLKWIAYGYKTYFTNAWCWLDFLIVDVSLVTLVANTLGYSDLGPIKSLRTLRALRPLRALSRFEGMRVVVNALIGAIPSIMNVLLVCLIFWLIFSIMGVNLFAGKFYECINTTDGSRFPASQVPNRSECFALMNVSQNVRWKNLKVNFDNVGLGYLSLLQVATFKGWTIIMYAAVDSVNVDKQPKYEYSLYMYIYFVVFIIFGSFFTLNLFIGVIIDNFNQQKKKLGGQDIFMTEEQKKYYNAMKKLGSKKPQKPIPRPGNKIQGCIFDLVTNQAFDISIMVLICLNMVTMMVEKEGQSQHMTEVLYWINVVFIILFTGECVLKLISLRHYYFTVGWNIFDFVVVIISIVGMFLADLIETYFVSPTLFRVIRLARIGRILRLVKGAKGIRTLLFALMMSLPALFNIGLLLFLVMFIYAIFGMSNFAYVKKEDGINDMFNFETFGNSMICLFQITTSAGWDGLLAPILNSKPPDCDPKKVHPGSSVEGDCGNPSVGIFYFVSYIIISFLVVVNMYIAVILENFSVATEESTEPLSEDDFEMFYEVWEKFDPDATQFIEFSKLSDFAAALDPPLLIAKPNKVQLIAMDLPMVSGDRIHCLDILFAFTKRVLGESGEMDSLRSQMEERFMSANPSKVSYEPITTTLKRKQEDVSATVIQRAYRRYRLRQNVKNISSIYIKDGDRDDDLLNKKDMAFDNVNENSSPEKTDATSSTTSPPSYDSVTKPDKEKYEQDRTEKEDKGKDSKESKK

Molecule	IC50
COc1nc(OCc2ccc(F)c(C(F)(F)F)c2)c(Cl)cc1-n1c(=O)ccc2cc(S(=O)(=O)Nc3ccon3)ccc21 [Example 1215, 1-(5-chloro-6-((4-fluoro-3-(trifluoromethyl)benzyl)oxy)-2-methoxy-3-pyridinyl)-N-3-isoxazolyl-2-oxo-1,2-dihydro-6-quinolinesulfonamide]	24 nM
COc1cc(Br)c(F)cc1-n1c(=O)ccc2cc(S(=O)(=O)Nc3cc(OCC4CCCC4)ncn3)ccc21 (atropisomer, axis not shown; (P)) [Example 1185, (P)-1-(4-bromo-5-fluoro-2-methoxyphenyl)-N-(6-(cyclopentylmethoxy)-4-pyrimidinyl)-2-oxo-1,2-dihydro-6-quinolinesulfonamide]	6640 nM
COc1cc(-c2cccc(OC(F)F)c2)c(F)cc1-n1c(=O)ccc2cc(S(=O)(=O)Nc3cc(C)ncn3)ccc21 (atropisomer, axis not shown; (P)) [Example 1173, (P)-1-(3′-(difluoromethoxy)-2-fluoro-5-methoxy-4-biphenylyl)-N-(6-methyl-4-pyrimidinyl)-2-oxo-1,2-dihydro-6-quinolinesulfonamide]	146 nM
COc1cc(-c2ccc(F)c(Cl)c2)ccc1-n1c(=O)cnc2cc(S(=O)(=O)Nc3ccon3)ccc21 [Example 1198, 1-(3′-chloro-4′-fluoro-3-methoxy-4-biphenylyl)-N-3-isoxazolyl-2-oxo-1,2-dihydro-6-quinoxalinesulfonamide]	39 nM
COc1ccc(-c2ccnn2C)cc1-n1c(=O)ccc2cc(S(=O)(=O)Nc3ccon3)ccc21 [Example 385, N-3-isoxazolyl-1-(2-methoxy-5-(1-methyl-1H-pyrazol-5-yl)phenyl)-2-oxo-1,2-dihydro-6-quinolinesulfonamide]	6230 nM

Same assay, conditions: in-vitro Nav 1.7 PX data

Molecule	IC50
COc1cc(Cl)c(-c2cccc(F)c2)cc1-n1c(=O)ccc2cc(S(=O)(=O)Nc3ccon3)ccc21 (atropisomer, axis not shown; (M)) [Example 609, (M)-1-(6-chloro-3′-fluoro-4-methoxy-3-biphenylyl)-N-3-isoxazolyl-2-oxo-1,2-dihydro-6-quinolinesulfonamide]	10100 nM
COc1cc(Cl)ccc1-c1ccc(-n2c(=O)ccc3cc(S(=O)(=O)Nc4ccon4)ccc32)c(OC)c1 [Example 816, 1-(4′-chloro-2′,3-dimethoxy-4-biphenylyl)-N-3-isoxazolyl-2-oxo-1,2-dihydro-6-quinolinesulfonamide]	27 nM
COc1cc(-c2ccc(Cl)c(C)c2)c(F)cc1-n1c(=O)ccc2cc(S(=O)(=O)Nc3cnsn3)ccc21 [Example 1072, 1-(4′-chloro-2-fluoro-5-methoxy-3′-methyl-4-biphenylyl)-2-oxo-N-1,2,5-thiadiazol-3-yl-1,2-dihydro-6-quinolinesulfonamide]	18 nM
COc1ccc(F)c(-c2cc(OC)c(-n3c(=O)ccc4cc(S(=O)(=O)Nc5ncccn5)ccc43)cc2C)c1 [Example 965, 1-(2′-fluoro-5,5′-dimethoxy-2-methyl-4-biphenylyl)-2-oxo-N-2-pyrimidinyl-1,2-dihydro-6-quinolinesulfonamide]	74 nM
COc1cc(-c2cccc(C(F)(F)F)c2)c(F)cc1-n1c(=O)ccc2cc(S(=O)(=O)Nc3ncco3)ccc21 [Example 806, 1-(2-fluoro-5-methoxy-3′-(trifluoromethyl)-4-biphenylyl)-N-1,3-oxazol-2-yl-2-oxo-1,2-dihydro-6-quinolinesulfonamide]	28 nM
COc1cc(Cl)cc(-c2ccc(-n3c(=O)ccc4cc(S(=O)(=O)Nc5ncco5)ccc43)c(OC)c2)c1 [Example 925, 1-(3′-chloro-3,5′-dimethoxy-4-biphenylyl)-N-1,3-oxazol-2-yl-2-oxo-1,2-dihydro-6-quinolinesulfonamide]	22 nM
COc1cc(C[C@H]2CCCOC2)c(F)cc1-n1c(=O)ccc2cc(S(=O)(=O)Nc3ccon3)ccc21 [Example 1118, 1-(5-fluoro-2-methoxy-4-((3R)-tetrahydro-2H-pyran-3-ylmethyl)phenyl)-N-3-isoxazolyl-2-oxo-1,2-dihydro-6-quinolinesulfonamide, 1-(5-fluoro-2-methoxy-4-((3S)-tetrahydro-2H-pyran-3-ylmethyl)phenyl)-N-3-isoxazolyl-2-oxo-1,2-dihydro-6-quinolinesulfonamide]	1480 nM
COc1cc(-c2cc(OC)c(-n3c(=O)ccc4cc(S(=O)(=O)Nc5ncc(F)cn5)ccc43)cc2F)ccc1F [Example 1010, 1-(2,4′-difluoro-3′,5-dimethoxy-4-biphenylyl)-N-(5-fluoro-2-pyrimidinyl)-2-oxo-1,2-dihydro-6-quinolinesulfonamide]	74 nM
COc1cc(-c2cccc(C(C)C)c2)ccc1-n1c(=O)ccc2cc(S(=O)(=O)Nc3ccon3)ccc21 [Example 783, N-3-isoxazolyl-1-(3-methoxy-3′-(1-methylethyl)-4-biphenylyl)-2-oxo-1,2-dihydro-6-quinolinesulfonamide]	9 nM
COc1cc(-c2cccc(OC(C)C)c2)ccc1-n1c(=O)ccc2cc(S(=O)(=O)Nc3ncc(F)cn3)ccc21 [Example 827, N-(5-fluoro-2-pyrimidinyl)-1-(3-methoxy-3′-(1-methylethoxy)-4-biphenylyl)-2-oxo-1,2-dihydro-6-quinolinesulfonamide]	177 nM
COc1cc(C2CCC(F)(F)CC2)c(F)cc1-n1c(=O)ccc2cc(S(=O)(=O)Nc3ccon3)ccc21 [Example 1102, 1-(4-(4,4-difluorocyclohexyl)-5-fluoro-2-methoxyphenyl)-N-3-isoxazolyl-2-oxo-1,2-dihydro-6-quinolinesulfonamide]	237 nM
COc1ccc(-c2cccc(F)c2F)cc1-n1c(=O)ccc2cc(S(=O)(=O)Nc3ccon3)ccc21 [Example 848, 1-(2′,3′-difluoro-4-methoxy-3-biphenylyl)-N-3-isoxazolyl-2-oxo-1,2-dihydro-6-quinolinesulfonamide]	118 nM
COc1cc(-c2cccc(C(F)(F)F)c2)ccc1-n1c(=O)ccc2cc(S(=O)(=O)Nc3cnccn3)ccc21 [Example 915, 1-(3-methoxy-3′-(trifluoromethyl)-4-biphenylyl)-2-oxo-N-2-pyrazinyl-1,2-dihydro-6-quinolinesulfonamide]	31 nM
1-(4′-chloro-2-fluoro-3′,5-dimethyl-4-biphenylyl)-2-oxo-N-3-pyridazinyl-1,2-dihydro-6-quinolinesulfonamide [Example 973]	90 nM
COc1cc(F)cc(-c2ccc(-n3c(=O)ccc4cc(S(=O)(=O)Nc5ncccn5)ccc43)c(OC)c2)c1 [Example 996, 1-(3′-fluoro-3,5′-dimethoxy-4-biphenylyl)-2-oxo-N-2-pyrimidinyl-1,2-dihydro-6-quinolinesulfonamide]	52 nM
COc1ccc(-c2cc(F)cc(F)c2)cc1-n1c(=O)ccc2cc(S(=O)(=O)Nc3ccon3)ccc21 [Example 865, 1-(3′,5′-difluoro-4-methoxy-3-biphenylyl)-N-3-isoxazolyl-2-oxo-1,2-dihydro-6-quinolinesulfonamide]	53 nM
O=c1ccc2cc(S(=O)(=O)Nc3ccon3)ccc2n1-c1ccc(-c2cccc(C(F)(F)F)c2)cc1 [Example 591, N-3-isoxazolyl-2-oxo-1-(3′-(trifluoromethyl)-4-biphenylyl)-1,2-dihydro-6-quinolinesulfonamide]	732 nM
COc1ccc(-c2cc(F)ccc2F)cc1-n1c(=O)ccc2cc(S(=O)(=O)Nc3ccon3)ccc21 [Example 840, 1-(2′,5′-difluoro-4-methoxy-3-biphenylyl)-N-3-isoxazolyl-2-oxo-1,2-dihydro-6-quinolinesulfonamide]	163 nM
COc1cc(-c2ccc(F)c(C)c2)c(F)cc1-n1c(=O)ccc2cc(S(=O)(=O)Nc3ncccn3)ccc21 [Example 940, 1-(2,4′-difluoro-5-methoxy-3′-methyl-4-biphenylyl)-2-oxo-N-2-pyrimidinyl-1,2-dihydro-6-quinolinesulfonamide]	34 nM

Same assay, conditions: in-vitro Nav 1.7 PX data (PatchXpress)

Molecule	IC50
O=c1ccc2cc(S(=O)(=O)Nc3nncs3)ccc2n1-c1ccc(-c2cc(F)cc(F)c2)cc1C1CC1 [Example 1047, 1-(3-cyclopropyl-3′,5′-difluoro-4-biphenylyl)-2-oxo-N-1,3,4-thiadiazol-2-yl-1,2-dihydro-6-quinolinesulfonamide]	6500 nM
O=c1ccc2cc(S(=O)(=O)Nc3cnccn3)ccc2n1-c1ccc(-c2cc(F)cc(F)c2)cc1C1CC1 [Example 1044, 1-(3-cyclopropyl-3′,5′-difluoro-4-biphenylyl)-2-oxo-N-2-pyrazinyl-1,2-dihydro-6-quinolinesulfonamide]	2950 nM
Cc1cc(-c2cc(OCC#N)c(-n3c(=O)ccc4cc(S(=O)(=O)Nc5ccon5)ccc43)cc2F)ccc1Cl [Example 622, 1-(4′-chloro-5-(cyanomethoxy)-2-fluoro-3′-methyl-[1,1′-biphenyl]-4-yl)-N-(isoxazol-3-yl)-2-oxo-1,2-dihydroquinoline-6-sulfonamide]	312 nM

Same assay, conditions: in-vitro PatchXpress (PX)

Molecule	IC50
COc1cc(-c2cc(F)cc(Cl)c2)ccc1-n1c(=O)ccc2cc(S(=O)(=O)Nc3cccnn3)ccc21 (atropisomer, axis not shown; (P)) [Example 480, (P)-1-(3′-chloro-5′-fluoro-3-methoxy-4-biphenylyl)-2-oxo-N-3-pyridazinyl-1,2-dihydro-6-quinolinesulfonamide]	8 nM
COc1cc(-c2cccc(C)c2)c(F)cc1-n1c(=O)ccc2cc(S(=O)(=O)Nc3ccon3)ccc21 (atropisomer, axis not shown; (M)) [Example 523, (M)-1-(2-fluoro-5-methoxy-3′-methyl-4-biphenylyl)-N-3-isoxazolyl-2-oxo-1,2-dihydro-6-quinolinesulfonamide]	4740 nM
COc1cc(N2CC(C(F)(F)F)C2)c(F)cc1-n1c(=O)ccc2cc(S(=O)(=O)Nc3ccon3)ccc21 [Example 530, 1-(5-fluoro-2-methoxy-4-(3-(trifluoromethyl)-1-azetidinyl)phenyl)-N-3-isoxazolyl-2-oxo-1,2-dihydro-6-quinolinesulfonamide]	495 nM
COc1cc(-c2ccc(Cl)c(F)c2)c(F)cc1-n1c(=O)ccc2cc(S(=O)(=O)Nc3ccon3)ccc21 (atropisomer, axis not shown; (P)) [Example 503, (P)-1-(4′-chloro-2,3′-difluoro-5-methoxy-4-biphenylyl)-N-3-isoxazolyl-2-oxo-1,2-dihydro-6-quinolinesulfonamide]	1100 nM
